Experimental findings from ChEMBL document CHEMBL1142823, “Analysis of structure-activity relationships for the 'B-region' of N-(4-t-butylbenzyl)-N'-[4-(methylsulfonylamino)benzyl]-thiourea analogues as TRPV1 antagonists” (Bioorg Med Chem Lett, 2005) are described below.

The EC50 is the concentration giving half of the maximal effect. Read a low EC50 as greater potency. One may read the Ki as the dissociation constant of the complex between target and ligand, obtained from inhibition or displacement. Read a low Ki as tighter binding.

Bounds are passed on as bounds.

Test [1] addresses T1, Transient receptor potential cation channel subfamily V member 1 (Rattus norvegicus, UniProt O35433). Put plainly: Induction of [Ca2+] uptake in CHO cells expressing rat TRPV1 at 10-30 uM relative to 300 nM capsaicin; Not effective. In kind it is functional, cell-based.
Test [2] has as its target T1, Transient receptor potential cation channel subfamily V member 1. Nature of the test: Antagonist activity towards rat TRPV1 expressed in CHO cells. It counts as functional, cell-based.
Test [3] shares this target. Nature of the test: In vitro inhibition of [3H]RTX binding to rat TRPV1 expressed in CHO cells. It counts as cell-based.
Test [4] shares this target. Nature of the test: Antagonist activity towards rat TRPV1 expressed in CHO cells; Not effective. In kind it is functional, cell-based.
The target is the same in test [5]. Nature of the test: Induction of [Ca2+] uptake in CHO cells expressing rat TRPV1 at 10-30 uM relative to 300 nM capsaicin; Weakly effective. In kind it is functional, cell-based.
Test [6] shares this target. Put plainly: Induction of [Ca2+] uptake in CHO cells expressing rat TRPV1 relative to 300 nM capsaicin. It counts as functional, cell-based.

T1 sequence (O35433 whole entry): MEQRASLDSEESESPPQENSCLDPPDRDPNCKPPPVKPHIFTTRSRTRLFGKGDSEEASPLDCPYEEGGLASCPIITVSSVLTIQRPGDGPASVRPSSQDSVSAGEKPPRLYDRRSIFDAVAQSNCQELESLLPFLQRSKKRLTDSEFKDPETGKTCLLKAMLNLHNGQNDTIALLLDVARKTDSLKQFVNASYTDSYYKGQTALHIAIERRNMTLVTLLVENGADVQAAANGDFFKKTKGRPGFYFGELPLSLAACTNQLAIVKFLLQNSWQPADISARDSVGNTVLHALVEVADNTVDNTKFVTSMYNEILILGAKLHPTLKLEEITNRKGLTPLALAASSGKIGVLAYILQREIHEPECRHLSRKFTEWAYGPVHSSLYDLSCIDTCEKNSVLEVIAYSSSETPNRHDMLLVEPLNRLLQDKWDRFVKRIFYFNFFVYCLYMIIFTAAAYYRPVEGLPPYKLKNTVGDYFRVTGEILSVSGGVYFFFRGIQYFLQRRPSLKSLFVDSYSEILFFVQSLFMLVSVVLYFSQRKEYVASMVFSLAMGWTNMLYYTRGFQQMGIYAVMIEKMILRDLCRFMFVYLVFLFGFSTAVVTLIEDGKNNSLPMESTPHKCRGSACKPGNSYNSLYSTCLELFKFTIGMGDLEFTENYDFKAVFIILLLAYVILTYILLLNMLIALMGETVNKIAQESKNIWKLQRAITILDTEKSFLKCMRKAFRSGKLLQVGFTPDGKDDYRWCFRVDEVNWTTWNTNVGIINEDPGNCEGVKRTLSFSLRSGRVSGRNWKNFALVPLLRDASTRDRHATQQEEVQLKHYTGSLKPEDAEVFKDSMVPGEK

On to `CC(C)(C)c1ccc(CNC(=O)Cc2ccc(NS(C)(=O)=O)cc2)cc1`, for which, in test [1], the EC50 entry is reported as “Not Active”. The values for the Ki in test [2] and in test [3] were 398 nM and 2100 nM, respectively.

Take `CC(C)(C)c1ccc(C/N=C(\S)N(O)Cc2ccc(NS(C)(=O)=O)cc2)cc1`: the EC50 result in test [1] is on record as “Not Active”. This compound also had a Ki in test [2] of 470 nM.

`CC(C)(C)c1ccc(CC(=O)N(O)Cc2ccc(NS(C)(=O)=O)cc2)cc1`: the Ki entry in test [4] is given as “Not Active”.

In the case of `CC(C)(C)c1ccc(C/N=C(\S)NNc2ccc(NS(C)(=O)=O)cc2)cc1`, the EC50 result in test [1] is “Not Active”. For the same compound, the Ki in test [2] was 1460 nM.

For the compound `CC(C)(C)c1ccc(CC(=O)NCc2ccc(NS(C)(=O)=O)cc2)cc1`, the Ki was found to be 6760 nM in test [2] and 5220 nM in test [3]. Besides, the efficacy in test [5] was determined as 20%.

For the compound `CC(C)(C)c1ccc(CNC(=O)N(O)Cc2ccc(NS(C)(=O)=O)cc2)cc1`, in test [4], the Ki result is recorded as “Not Active”.

Take `CCCCCCCC/C=C\CCCCCCCCNC(=O)Cc1ccc(NS(C)(=O)=O)cc1`: the EC50 entry in test [1] is on record as “Not Active”. For the same compound, the values for the Ki result in test [4] and in test [3] were “Not Active” and greater than 25000 nM, respectively.

Turning to `CC(C)(C)c1ccc(CN(O)/C(S)=N/Cc2ccc(NS(C)(=O)=O)c(F)c2)cc1`, in test [6], the EC50 is greater than 7060 nM. The Ki result in test [4] is on record as “Not Active”.

Take `COc1cc(CO/C(S)=N/Cc2ccc(C(C)(C)C)cc2)ccc1NS(C)(=O)=O`: the EC50 entry in test [1] is on record as “Not Active”. Moreover, the Ki in test [2] came to 110 nM; in test [3], 461 nM.

For `CC(C)(C)c1ccc(C/N=C(\S)OCc2ccc(NS(C)(=O)=O)c(F)c2)cc1`, the Ki in test [2] worked out at 120 nM; in test [3] it was 450 nM. For the same compound, the efficacy in test [5] is 7%.

`Cc1ccc(CCCNC(=O)Cc2ccc(NS(C)(=O)=O)c(F)c2)cc1C`: the EC50 result in test [1] was “Not Active”. This compound also showed a Ki in test [2] of 4660 nM.

For the compound `CC(C)(C)c1ccc(CN(O)/C(S)=N/Cc2ccc(NS(C)(=O)=O)c([N+](=O)[O-])c2)cc1`, the EC50 result in test [1] is reported as “Not Active”. Also, the affinity in test [2] corresponds to a Ki of 635 nM.

As for `CC(C)(C)c1ccc(CNC(=O)NCc2ccc(NS(C)(=O)=O)cc2)cc1`, the EC50 entry in test [1] is “Not Active”. Also, the inhibition constant Ki in test [2] was found to be 225 nM; in test [3], 2560 nM.

Turning to `COc1cc(C/N=C(\S)OCc2ccc(C(C)(C)C)cc2)ccc1NS(C)(=O)=O`, the EC50 entry in test [1] is on record as “Not Active”. The compound further showed a Ki in test [2] of 8400 nM.

Take `Cc1ccc(CCCNC(=O)Cc2ccc(NS(C)(=O)=O)cc2)cc1C`: the EC50 entry in test [1] was “Not Active”. For the same compound, the Ki was 13600 nM in test [2] and 7180 nM in test [3].

With `COc1cc(C/N=C(\S)N(O)Cc2ccc(C(C)(C)C)cc2)ccc1NS(C)(=O)=O`, in test [4], the Ki result is reported as “Not Active”.

Take `CC(C)(C)c1ccc(CO/C(S)=N/Cc2ccc(NS(C)(=O)=O)cc2)cc1`: the Ki in test [2] was 6250 nM; in test [3], 4600 nM. The compound also showed an efficacy in test [5] of 13%.

As to `CC(C)(C)c1ccc(C/N=C(\S)OCc2ccc(NS(C)(=O)=O)cc2)cc1`, in test [1], the EC50 entry was “Not Active”. Further, the values for the Ki in test [2] and in test [3] were 222 nM and 772 nM, respectively.

For `CC(C)(C)c1ccc(CNC(=S)NCc2ccc(NS(C)(=O)=O)cc2)cc1`, in test [1], the EC50 entry is “Not Active”.

Turning to `COc1cc(CNC(=S)NCc2ccc(C(C)(C)C)cc2)ccc1NS(C)(=O)=O`, the Ki in test [2] is 3.4 nM; in test [3] it was 50.4 nM. Further, in test [5], the EC50 entry is given as “Partial agonist”.

Take `CC(C)(C)c1ccc(CN(O)C(=O)Cc2ccc(NS(C)(=O)=O)cc2)cc1`: in test [2], the affinity, expressed as Ki, was 6600 nM. In test [5], this compound displayed an efficacy of 30%.

Consider `CC(C)(C)c1ccc(N/N=C(\S)NCc2ccc(NS(C)(=O)=O)cc2)cc1`, for which the EC50 result in test [1] was “Not Active”. Further, the Ki in test [2] was 2010 nM; in test [3] it was 6400 nM.

`CC(C)(C)c1ccc(CN(O)/C(S)=N/Cc2ccc(NS(C)(=O)=O)cc2)cc1` yielded a Ki in test [2] of 470 nM. Further, in test [5], the efficacy is reported as 16%.

Turning to `CC(C)(C)c1ccc(CN(O)/C(S)=N/Cc2ccc(NS(C)(=O)=O)cc2Cl)cc1`, the EC50 entry in test [1] is reported as “Not Active”. In addition, the figures for the Ki result in test [4] and in test [3] were “Not Active” and 2270 nM, respectively.

As to `CC(C)(C)c1ccc(CNC(=O)Cc2ccc(NS(C)(=O)=O)c(F)c2)cc1`, in test [1], the EC50 result is listed as “Not Active”. In addition, the Ki in test [2] was 118 nM; in test [3] it was 472 nM.

For `CC(C)(C)c1ccc(CNC(=S)NCc2ccc(NS(C)(=O)=O)c(F)c2)cc1`, in test [1], the EC50 result is listed as “Not Active”. The same compound had a Ki in test [3] of 53.5 nM.

Take `CC(C)(C)c1ccc(CN(O)/C(S)=N/Cc2ccc(NS(C)(=O)=O)c(Cl)c2)cc1`: the EC50 entry in test [1] is “Not Active”. In addition, the Ki in test [2] was 579 nM; in test [3], 1310 nM.

`Oc1cc2c(cc1O)CN(C(=S)NCCc1ccc(Cl)cc1)CCC2` [CAPSAZEPINE]: in test [1], the EC50 result is reported as “Not Active”.
